Paper PMC8267945, “Plumbagin, a Natural Product with Potent Anticancer Activities, Binds to and Inhibits Dihydroorotase, a Key Enzyme in Pyrimidine Biosynthesis” (International Journal of Molecular Sciences, 2021)
Entries after “also recorded” stand apart in the source; their conditions may differ.

Columns and labels:
huDHOase = target: T1, huDHOase (Homo sapiens, UniProt P27708); assay: rapid spectrophotometric DHOase enzyme assay (hydrolysis of DHO); format: biochemical; conditions: for decrease of the activity of huDHOase: 200 μM compound in the standard assay; for inhibition of huDHOase (in words): 200 μM for the compounds of Figure 2, AZT concentration not given
T1 construct: huDHOase1456-1846-NdeI-N; made in house; host or cells: E. coli BL21(DE3)
T1 sequence (P27708 1456-1846): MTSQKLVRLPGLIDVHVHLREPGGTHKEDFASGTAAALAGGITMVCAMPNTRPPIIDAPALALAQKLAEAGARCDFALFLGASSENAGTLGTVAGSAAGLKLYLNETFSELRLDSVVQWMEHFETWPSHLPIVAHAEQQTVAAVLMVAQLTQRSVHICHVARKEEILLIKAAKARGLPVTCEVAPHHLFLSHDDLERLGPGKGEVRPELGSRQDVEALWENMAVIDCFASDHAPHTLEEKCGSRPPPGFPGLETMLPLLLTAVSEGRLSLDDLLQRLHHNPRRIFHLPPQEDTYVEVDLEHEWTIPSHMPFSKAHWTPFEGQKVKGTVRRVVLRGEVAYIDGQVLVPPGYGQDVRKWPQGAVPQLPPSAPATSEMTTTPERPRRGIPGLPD
Method: A rapid spectrophotometric assay was used to determine the activity of DHOase. Briefly, the hydrolysis of DHO was measured at 25 °C as the decrease in absorbance at 230 nm. The purified DHOase was added to a 2 mL solution containing 0.5 mM DHO and 100 mM Tris–HCl at pH 8.0 to start the reaction. […] The hydrolysis of DHO was monitored using a UV/Vis spectrophotometer (Hitachi U 3300; Hitachi High-Technologies, Tokyo, Japan). A unit of activity was defined as the amount of enzyme catalyzing the hydrolysis of 1 μmol DHO/min, and the specific activity was expressed in terms of units of activity per mg of enzyme. The kinetic parameters Km and Vmax were determined from a nonlinear plot by fitting the hydrolyzing rate from individual experiments to the Michaelis–Menten equation (Enzyme Kinetics module of Sigma-Plot; Systat Software, Chicago, IL, USA).

ScDHOase [1] = target: T2, ScDHOase (Saccharomyces cerevisiae, UniProt P20051); assay: fluorescence quenching binding assay; conditions: for quenching of the intrinsic fluorescence of ScDHOase: 200 μM compound, 324 nm, excitation 280 nm
T2 construct: made in house; host or cells: E. coli BL21(DE3)
T2 sequence (P20051 whole entry): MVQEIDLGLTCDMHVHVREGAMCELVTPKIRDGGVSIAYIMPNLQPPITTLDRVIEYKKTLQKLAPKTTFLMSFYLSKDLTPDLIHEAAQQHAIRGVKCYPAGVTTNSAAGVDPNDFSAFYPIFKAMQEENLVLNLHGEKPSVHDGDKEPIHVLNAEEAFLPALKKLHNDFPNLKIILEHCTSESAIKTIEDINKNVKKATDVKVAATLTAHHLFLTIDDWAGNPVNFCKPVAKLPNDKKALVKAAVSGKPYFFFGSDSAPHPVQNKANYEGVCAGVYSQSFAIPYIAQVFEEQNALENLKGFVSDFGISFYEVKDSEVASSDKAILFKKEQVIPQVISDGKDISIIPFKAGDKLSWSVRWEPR
Method: Figure 7 The data used to calculate the Kd values of various DHOases. (A) The fluorescence emission spectra of ScDHOase with PLU of different concentrations (0–200 μM; 0, 10, 20, 50, 75, 100, 125, 150, 175, and 200 μM). The decrease in intrinsic fluorescence of protein was measured at 324 nm upon excitation at 280 nm with a spectrofluorometer. […] (B) The fluorescence emission spectra of huDHOase with PLU of different concentrations (0–200 μM). (C) The fluorescence emission spectra of StDHOase with PLU of different concentrations. (D) The fluorescence emission spectra of ScDHOase–R18A with PLU of different concentrations. (E) The fluorescence emission spectra of ScDHOase–T106A with PLU of different concentrations. […] (F) An aliquot amount of PLU was added to the enzyme solution to determine the Kd. The Kd was obtained by the following equation: ΔF = ΔFmax − Kd(ΔF/[PLU]). Data points are an average of 2–3 determinations within a 10% error.
The decrease in the intrinsic fluorescence of DHOase was measured with a spectrofluorometer (Hitachi F-2700; Hitachi High-Technologies, Japan). The Kd was obtained using the following equation: ΔF = ΔFmax − Kd(ΔF/[PLU]).
The Kd value of the purified DHOase was determined using the fluorescence quenching method as previously described for DHOase, DHPase, and DnaB helicase. Briefly, an aliquot of the compound was added into the solution containing DHOase (1 μM) and 50 mM HEPES at pH 7.0. The decrease in the intrinsic fluorescence of DHOase was measured at 324 nm upon excitation at 280 nm and 25 °C with a spectrofluorometer (Hitachi F-2700; Hitachi High-Technologies, Japan). The Kd was obtained using the following equation: ΔF = ΔFmax − Kd(ΔF/[PLU]).

ScDHOase [2] = target: T2, ScDHOase; conditions: cited from earlier work
Plasmodium falciparum = system: Plasmodium falciparum; parameters: method as in PMID 2675756; conditions: read-out: concentration giving 50% growth inhibition of parasites; cited from earlier work
in vitro = format: cell-based, mouse; conditions: mouse
Method: The 4T1 cells (1 × 10^4) were incubated with PLU in a 100 μL volume. After 24 h, the anticancer potentiality was estimated.

4T1 cells [3] = assay: wound-healing assay; format: cell-based, mouse; conditions: 5-FU 5 μM
Method: The wound-healing assay was performed to study whether PLU can inhibit 4T1 cell migration. Briefly, 4T1 cells were seeded in 24-well plates, incubated in serum-reduced medium for 6 h, wounded in a line across the well with a 200 μL pipette tip, and washed twice with the serum-reduced medium. After different treatments, cells were incubated for 24 h to allow migration.

4T1 cells [4] = assay: chromatin condensation assay (Hoechst staining); format: cell-based, mouse; conditions: 5-FU 5 μM
Method: The apoptosis in 4T1 cells was assayed with Hoechst 33342 staining. The 4T1 cells were seeded in 6-well plates at a density of 5 × 10^5 cells per well in a volume of […] of culture medium. Cells were allowed to adhere for 16 h. After different treatments, cells were incubated for an additional 24 h, washed with PBS, stained with the Hoechst dye (1 μg·mL^−1) in the dark at RT for 10 min, and imaged using an inverted fluorescence microscope (Axiovert 200 M; Zeiss Axioplam, Oberkochen, Germany) at excitation and emission wavelengths (λem) of 360 and 460 nm, respectively. The apoptotic index was calculated as follows: apoptotic index = apoptotic cell number/(apoptotic cell number + nonapoptotic cell number).

4T1 cells [5] = assay: clonogenic formation assay; format: cell-based, mouse; conditions: 5-FU 5 μM
Method: A clonogenic formation assay was used to assess the 4T1 cell growth to study whether the PLU can inhibit 4T1 cell proliferation. Briefly, 4T1 cells were seeded at a density of 10^3 cells per well into 6-well plates and incubated overnight for attachment. After different treatments, plates were incubated for 5–7 days to allow clonogenic growth. After washing with PBS, colonies were fixed with methanol and stained with 0.5% crystal violet for 20 min, and the number of colonies was counted under a light microscope.

| Compound | quenching of the intrinsic fluorescence of ScDHOase (ScDHOase [1]) [%] | inhibition of huDHOase (in words) (huDHOase) | further results |
| --- | --- | --- | --- |
| N=C1NC(=O)CC(C(=O)O)S1 (stereo not shown) [ITCA, 2-imino-4-oxo-1,3-thiazinane-6-carboxylic acid] | 15.6 | – | decrease of the activity of huDHOase (huDHOase): 12% |
| Cc1cn([C@H]2C[C@H](N=[N+]=[N-])[C@@H](CO)O2)c(=O)[nH]c1=O [AZT] | – | did not inhibit the activity of huDHOase | – |
| Nc1nc[nH]n1 [3-amino-1,2,4-triazole] | 2.8 | None of these compounds decreased the activity of huDHOase | – |
| Nc1c[nH]c(=O)[nH]c1=O [5-AU, 5-aminouracil] | – | did not inhibit the activity of huDHOase | λmax of ScDHOase emission (red shift) (ScDHOase [2]): from 324 to 335.5 |
| O=C(O)c1cc(=O)[nH]c(=O)[nH]1 [orotic acid] | 65.9 | – | Kd (ScDHOase [1]): 198.3 ± 1.2 µM |
| O=C(O)c1[nH]c(=O)[nH]c(=O)c1F [5-FOA, 5-fluoroorotate] | 78.2 | – | decrease of the activity of huDHOase (huDHOase): 26%; IC50 (Plasmodium falciparum): 0.006 µM |
| O=C(O)CC(O)C(=O)O (stereo not shown) [malate] | 10.9 | – | decrease of the activity of huDHOase (huDHOase): 6% |
| O=C1CCC(C(=O)O)NC(=O)N1 (stereo not shown) [DDCA, 2,7-dioxo-1,3-diazepane-4-carboxylic acid] | 3.0 | did not inhibit huDHOase | – |
| O=c1[nH]cc(F)c(=O)[nH]1 [5-FU, 5-fluorouracil] | – | did not inhibit the activity of huDHOase; also recorded: cannot inhibit DHOase | mortality at 24 h, 5 μM (in vitro): 27%; Migration rate (4T1 cells [3]): 65%; Apoptotic rate (4T1 cells [4]): 26%; Colony count (4T1 cells [5]): 54%; λmax of ScDHOase emission (red shift) (ScDHOase [2]): from 324 to 335.5 |
| CC(=O)NCCc1cnc[nH]1 [N-ω-acetylhistamine] | 2.8 | None of these compounds decreased the activity of huDHOase | – |
| O=C(O)CC1NC(=O)NC1=O (stereo not shown) [5-HAA, 5-hydantoinacetic acid] | 1.5 | did not inhibit huDHOase | – |
| Nc1n[nH]c(N)n1 [3,5-diamino-1,2,4-triazole] | 3.9 | None of these compounds decreased the activity of huDHOase | – |
| CSc1nnn[nH]1 [5-methylthio-1H-tetrazole] | 2.3 | None of these compounds decreased the activity of huDHOase | – |
| CC(=O)NO [Acetohydroxamate] | 2.5 | – | – |
